# Tests used:
# Type in all cases: functional
# COLO 205 = assay: Anticancer activity against human COLO205 cells after 48 hrs by sulforhodamine B assay; settings: Homo sapiens, COLO 205, 48 h
# SR = assay: Anticancer activity against human SR cells after 48 hrs by sulforhodamine B assay
# OVCAR-5 [1] = assay: Anticancer activity against human OVCAR5 cells after 48 hrs by sulforhodamine B assay; settings: Homo sapiens, OVCAR-5, 48 h
# HCT-116 [2] = assay: Anticancer activity against human HCT116 cells assessed cell growth at 10 uM after 48 hrs by sulforhodamine B assay relative to control
# SW-620 [3] = assay: Anticancer activity against human SW620 cells assessed cell growth at 10 uM after 48 hrs by sulforhodamine B assay relative to control
# HCT-116 [4] = assay: Anticancer activity against human HCT116 cells after 48 hrs by sulforhodamine B assay; settings: Homo sapiens, HCT-116, 48 h
# SW-620 [5] = assay: Anticancer activity against human SW620 cells after 48 hrs by sulforhodamine B assay; settings: Homo sapiens, SW-620, 48 h
# UACC-62 = assay: Anticancer activity against human UACC62 cells after 48 hrs by sulforhodamine B assay; settings: Homo sapiens, UACC-62, 48 h
# KM12 = assay: Anticancer activity against human KM12 cells assessed cell growth at 10 uM after 48 hrs by sulforhodamine B assay relative to control
# HCT-15 [6] = assay: Anticancer activity against human HCT15 cells assessed cell growth at 10 uM after 48 hrs by sulforhodamine B assay relative to control
# OVCAR-8 = assay: Anticancer activity against human OVCAR8 cells assessed cell growth at 10 uM after 48 hrs by sulforhodamine B assay relative to control
# SF-268 [7] = assay: Anticancer activity against human SF268 cells after 48 hrs by sulforhodamine B assay; settings: Homo sapiens, SF-268, 48 h
# TK-10 = assay: Anticancer activity against human TK10 cells assessed cell growth at 10 uM after 48 hrs by sulforhodamine B assay relative to control
# NCI-H460 = assay: Anticancer activity against human NCI-H460 cells after 48 hrs by sulforhodamine B assay; settings: Homo sapiens, NCI-H460, 48 h
# SF-295 [8] = assay: Anticancer activity against human SF295 cells assessed cell growth at 10 uM after 48 hrs by sulforhodamine B assay relative to control
# NCI/ADR-RES = assay: Anticancer activity against human NCI/ADR-RES cells after 48 hrs by sulforhodamine B assay; settings: Homo sapiens, NCI/ADR-RES, 48 h
# SK-MEL-28 = assay: Anticancer activity against human SK-MEL-28 cells after 48 hrs by sulforhodamine B assay; settings: Homo sapiens, SK-MEL-28, 48 h
# OVCAR-3 = assay: Anticancer activity against human OVCAR-3 cells after 48 hrs by sulforhodamine B assay; settings: Homo sapiens, OVCAR-3, 48 h
# ACHN = assay: Anticancer activity against human ACHN cells after 48 hrs by sulforhodamine B assay
# MDA-MB-468 = assay: Anticancer activity against human MDA-MB-468 cells after 48 hrs by sulforhodamine B assay
# HL-60(TB) = assay: Anticancer activity against human HL-60(TB) cells after 48 hrs by sulforhodamine B assay
# DU-145 = assay: Anticancer activity against human DU145 cells after 48 hrs by sulforhodamine B assay; settings: Homo sapiens, DU-145, 48 h
# A498 [9] = assay: Anticancer activity against human A498 cells assessed cell growth at 10 uM after 48 hrs by sulforhodamine B assay relative to control
# NCI-H322M = assay: Anticancer activity against human NCI-H322M cells after 48 hrs by sulforhodamine B assay
# HCT-15 [10] = assay: Anticancer activity against human HCT15 cells after 48 hrs by sulforhodamine B assay
# MDA-MB-435 [11] = assay: Anticancer activity against human MDA-MB-435 cells after 48 hrs by sulforhodamine B assay; settings: Homo sapiens, MDA-MB-435, 48 h
# MDA-MB-435 [12] = assay: Anticancer activity against human MDA-MB-435 cells assessed cell growth at 10 uM after 48 hrs by sulforhodamine B assay relative to control
# SK-OV-3 [13] = assay: Anticancer activity against human SKOV3 cells assessed cell growth at 10 uM after 48 hrs by sulforhodamine B assay relative to control
# NCI-H226 = assay: Anticancer activity against human NCI-H226 cells after 48 hrs by sulforhodamine B assay; settings: Homo sapiens, NCI-H226, 48 h
# Malme-3M = assay: Anticancer activity against human MALME-3M cells after 48 hrs by sulforhodamine B assay
# SF-268 [14] = assay: Anticancer activity against human SF268 cells assessed cell growth at 10 uM after 48 hrs by sulforhodamine B assay relative to control
# A498 [15] = assay: Anticancer activity against human A498 cells after 48 hrs by sulforhodamine B assay; settings: Homo sapiens, A498, 48 h
# SF-295 [16] = assay: Anticancer activity against human SF295 cells after 48 hrs by sulforhodamine B assay; settings: Homo sapiens, SF-295, 48 h
# T47D [17] = assay: Anticancer activity against human T47D cells after 48 hrs by sulforhodamine B assay; settings: Homo sapiens, T47D, 48 h
# OVCAR-5 [18] = assay: Anticancer activity against human OVCAR5 cells assessed cell growth at 10 uM after 48 hrs by sulforhodamine B assay relative to control
# MCF7 [19] = assay: Anticancer activity against human MCF7 cells after 48 hrs by sulforhodamine B assay
# MCF7 [20] = assay: Anticancer activity against human MCF7 cells assessed cell growth at 10 uM after 48 hrs by sulforhodamine B assay relative to control
# T47D [21] = assay: Anticancer activity against human T47D cells assessed cell growth at 10 uM after 48 hrs by sulforhodamine B assay relative to control
# SN12C = assay: Anticancer activity against human SN12C cells after 48 hrs by sulforhodamine B assay; settings: Homo sapiens, SN12C, 48 h
# [22] = Anticancer activity against human Hs 578T cells after 48 hrs by sulforhodamine B assay; settings: Homo sapiens, Hs-578T, 48 h
# SK-OV-3 [23] = assay: Anticancer activity against human SKOV3 cells after 48 hrs by sulforhodamine B assay
# [24] = read-out: LC50 (the source's name)
compound,measurement,setting,value
CCCCCCCCCCCCCCCCCC[n+]1ccn(C)c1.[Cl-],GI50,COLO 205,285 nM
same,CC50,COLO 205; [24],> 100 µM
same,GI50,SR,154 nM
same,CC50,SR; [24],3.79 µM
same,GI50,OVCAR-5 [1],819 nM
same,CC50,OVCAR-5 [1]; [24],7.89 µM
same,Activity,HCT-116 [2],-18.25%
same,Activity,SW-620 [3],-45.24%
same,GI50,HCT-116 [4],343 nM
same,CC50,HCT-116 [4]; [24],> 100 µM
same,GI50,SW-620 [5],446 nM
same,LC50,SW-620 [5],4.72 µM
same,GI50,UACC-62,848 nM
same,LC50,UACC-62,5.07 µM
same,Activity,KM12,-47.8%
same,Activity,HCT-15 [6],3.3%
same,Activity,OVCAR-8,-20.19%
same,GI50,SF-268 [7],978 nM
same,CC50,SF-268 [7]; [24],5.88 µM
same,Activity,TK-10,-70.24%
same,GI50,NCI-H460,405 nM
same,LC50,NCI-H460,3.92 µM
same,Activity,SF-295 [8],-10.43%
same,GI50,NCI/ADR-RES,1660 nM
same,LC50,NCI/ADR-RES,> 100 µM
same,GI50,SK-MEL-28,879 nM
same,LC50,SK-MEL-28,5.75 µM
same,GI50,OVCAR-3,375 nM
same,LC50 (50% lethal concentration),OVCAR-3,4.01 µM
same,GI50,ACHN,446 nM
same,LC50,"ACHN; Homo sapiens, ACHN, 48 h",4.23 µM
same,GI50,MDA-MB-468,66 nM
same,LC50,"MDA-MB-468; Homo sapiens, MDA-MB-468, 48 h",7.25 µM
same,GI50,"HL-60(TB); Homo sapiens, HL-60, 48 h",143 nM
same,CC50,HL-60(TB); [24],791 nM
same,GI50,DU-145,635 nM
same,CC50,DU-145; [24],4.4 µM
same,Activity,A498 [9],-50.94%
same,LC50,NCI-H322M,5.95 µM
same,GI50,"NCI-H322M; Homo sapiens, NCI-H322M, 48 h",1300 nM
same,GI50,HCT-15 [10],461 nM
same,CC50,"HCT-15 [10]; Homo sapiens, HCT-15, 48 h, read-out: LC50 (the source's name)",4.11 µM
same,GI50,MDA-MB-435 [11],684 nM
same,CC50,MDA-MB-435 [11]; [24],7.96 µM
same,Activity,MDA-MB-435 [12],-56.4%
same,Activity,SK-OV-3 [13],4.83%
same,GI50,NCI-H226,869 nM
same,LC50,NCI-H226,5.99 µM
same,GI50,Malme-3M,368 nM
same,LC50 (concentration killing 50% of cells),"Malme-3M; Homo sapiens, Malme-3M, 48 h",5.83 µM
same,Activity,SF-268 [14],-45.4%
same,GI50,A498 [15],1070 nM
same,CC50,A498 [15]; [24],8.94 µM
same,GI50,SF-295 [16],332 nM
same,CC50,SF-295 [16]; [24],5.59 µM
same,GI50,T47D [17],546 nM
same,CC50,T47D [17]; [24],> 100 µM
same,Activity,OVCAR-5 [18],-61.54%
same,GI50,MCF7 [19],356 nM
same,LC50 (50% cell kill),"MCF7 [19]; Homo sapiens, MCF7, 48 h",3.78 µM
same,Activity,MCF7 [20],-33.81%
same,Activity,T47D [21],35.89%
same,GI50,SN12C,679 nM
same,LC50,SN12C,4.77 µM
same,GI50,[22],335 nM
same,CC50,[22]; [24],6.31 µM
same,GI50,"SK-OV-3 [23]; Homo sapiens, SK-OV-3, 48 h",1240 nM
same,CC50,SK-OV-3 [23]; [24],> 100 µM

# From ChEMBL document CHEMBL1153245, “A profile of the in vitro anti-tumor activity of imidazolium-based ionic liquids” (2010)
